Results as given in patent publication US20260167622A1, “PAN-KRAS DEGRADING AGENT, AND PREPARATION METHOD THEREFOR AND USE THEREOF” (LEADINGTAC PHARMACEUTICAL (SHAOXING) CO., LTD., priority 2022, published 2026).

Key:
Assay type in all cases: cell-based
[1] = system: KRAS G12V mutant human colorectal cancer cell SW620; experiment: 3D cell proliferation inhibition assay, SW620; details: SW-620, 168 h, 3D culture, 7 days, CTG
Method in brief: (§1)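 Seven-day 3D growth at 37 °C in low-adsorption wells, 5×10^2 cells/well except MKN1 (1×10^3), final compound range 10000–0.026 nM in 0.2% DMSO. CTG luminescence read-out; percent inhibition set against DMSO and medium-only wells, IC50 by curve fitting.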

[2] = system: KRAS WT human gastric cancer cell MKN1; experiment: 3D cell proliferation inhibition assay, MKN1; details: MKN-1, 168 h, 3D culture, 7 days, CTG
Method in brief: as §1

[3] = system: KRAS G12C mutant human non-small cell lung cancer cell NCI-H358; experiment: 3D cell proliferation inhibition assay, NCI-H358; details: NCI-H358, 168 h, 3D culture, 7 days, CTG
Method in brief: as §1

[4] = target: T1, KRAS G13D protein in DLD-1 cells (Homo sapiens, UniProt P01116, G13D); experiment: KRAS degradation assay (Western Blot) in DLD-1 cells; details: 24 h
T1 construct: endogenous in cells; host or cells: DLD-1
Text: (§2) Test Example 5: KRAS G12C, KRAS G12D, KRAS G12V, KRAS G13D, and KRAS WT (Expanded) Degradation Assays
(§3) The degradation effect of the compounds on KRAS was investigated on KRAS G12C mutant human non-small cell lung cancer cell NCI-H358, KRAS G12D mutant human metastatic pancreatic cancer cell AsPc-1, KRAS G12D mutant human lung cancer cell A427, KRAS G12V mutant human colorectal cancer cell SW620, KRAS G12V mutant human lung cancer cell SW900, KRAS G13D mutant human colorectal cancer epithelial cell DLD-1, and KRAS WT human gastric cancer cell MKN-1. The specific procedures were as follows: 0.95 mL of cells were seeded into each well of a 24-well cell culture plate to achieve a cell density of 5×10^5 cells/well; and the cell plate was incubated in an incubator at 37° C. with 5% CO2 overnight. Then 50 μL of the compound solution after dilution was added to each of the wells with the corresponding cells, so that the final concentration of the compound was in a range of 0.03-3000 nM. The final concentration of DMSO was 0.25%. After the compounds were added, the cell plate was incubated in an incubator at 37° C. with 5% CO2 for 24 h. The culture medium in the 24-well cell culture plate was then removed, and the plate was washed twice with 1×PBS (KeyGEN). 120 μL of RIPA (strong) lysis buffer (Beyotime) (supplemented with 1 mM phenylmethylsulfonyl fluoride, a protease inhibitor mixture (Beyotime), and a protease phosphatase inhibitor mixture (Beyotime)) was added to lyse adherent SW900 cells at the bottom of the cell culture plate. After the plate was left to stand on ice for 30 min, the protein lysate in each well was transferred to a 1.5 mL centrifuge tube and centrifuged at 15000 g for 20 min at 4° C. The cell lysate supernatants after centrifugation were cryopreserved in a refrigerator at −80° C. for later use.
(§4) After the samples of the cell lysate supernatants that had been prepared were thawed from the refrigerator at −80° C., the total protein concentrations of the cell lysates were determined using a BCA protein quantification kit (Tiangen). The total protein concentrations of the samples were then adjusted to 0.5 μg/μL with PBS and 5×SDS-PAGE protein loading buffer (Beyotime), and the samples were incubated in a water bath at 100° C. for 15 min. The samples were then incubated in an ice bath for 5 min and centrifuged at 14000 g for 1 min at 4° C., and the supernatants were mixed well as loading samples for the Western Blot assay. The samples were loaded into wells of a 10% precast gel (KeyGEN) with a loading volume of 10 μL (total protein: 5 μg), a sufficient Tris-MOPS-SDS running buffer (Adamas) was added, and then electrophoresis was performed at a constant voltage of 120 V for 55 min. After the electrophoresis, the proteins on the gel were transferred to PVDF membranes at a constant current of 250 mA for 55 min. After the membrane transfer, the PVDF membranes were incubated in 1× Quick Block blocking buffer (Beyotime)at room temperature for 30 min. After the blocking, the PVDF membranes were separately incubated at 4° C. overnight with the KRAS antibody (Abcam) diluted in a ratio of 1:1000 and the β-actin antibody (Abcam) diluted in a ratio of 1:2000 in 5% BSA as the diluent, and then washed with 1×TBST buffer (2.4 g of Tris, 8.8 g of NaCl, 1.5 mL of Tween 20, with pH adjusted to 7.4, with the volume brought to 1 L) 3 times for 10 min/time. The membranes were incubated with a secondary antibody (Abcam) diluted in 5% BSA at room temperature for 2 h, and then washed with 1×TBST buffer 3 times for 10 min/time. Finally, the membranes were incubated with Clarity Western ECL Substrate (BIO-RAD) for 5 min for luminescence and color development, and a ChemiScope 6200 Touch chemiluminescence imaging system (Clinx) was used for color development and protein mapping. Gray value analysis of the protein maps was performed using the chemiluminescence analysis software (Clinx). […]

[5] = target: T2, KRAS G12C protein in NCI-H358 cells (Homo sapiens, UniProt P01116, G12C); experiment: KRAS degradation assay (Western Blot) in NCI-H358 cells; details: 24 h
T2 construct: endogenous in cells; host or cells: NCI-H358
Text: as §2, §3, §4

[6] = target: T3, KRAS G12V protein in SW620 cells (Homo sapiens, UniProt P01116, G12V); experiment: KRAS degradation assay (Western Blot) in SW620 cells; details: for DC50: 24 h; for Dmax: SW-620, 24 h
T3 construct: endogenous in cells; host or cells: SW620
Method in brief: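 After a 24 h treatment spanning 0.03–3000 nM, remaining KRAS protein is quantified by ECL immunoblot against a β-actin internal reference. Degradation is expressed relative to vehicle-treated cells and curve-fitted for DC50 and Dmax.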

[7] = system: KRAS G12D mutant human metastatic pancreatic cancer cell AsPc-1; experiment: 3D cell proliferation inhibition assay, AsPc-1; details: ASPC1, 168 h, 3D culture, 7 days, CTG
Method in brief: as §1

[8] = target: T4, KRAS WT (expanded) protein in MKN1 cells (Homo sapiens, UniProt P01116); experiment: KRAS degradation assay (Western Blot) in MKN1 cells; details: for DC50: 24 h; for Dmax: MKN-1, 24 h
T4 construct: endogenous in cells; host or cells: MKN1 (MKN-1)
Text: as §2, §3, §4

[9] = system: KRAS G13D mutant human colorectal cancer epithelial cell DLD-1; experiment: 3D cell proliferation inhibition assay, DLD-1; details: DLD-1, 168 h, 3D culture, 7 days, CTG
Method in brief: as §1

[10] = target: T5, KRAS G12D protein in AsPc-1 cells (Homo sapiens, UniProt P01116, G12D); experiment: KRAS degradation assay (Western Blot) in AsPc-1 cells; details: for DC50: 24 h; for Dmax: ASPC1, 24 h
T5 construct: endogenous in cells; host or cells: AsPc-1
Text: as §2, §3, §4

T3 sequence (P01116 1-188 isoform P01116-2 G12V): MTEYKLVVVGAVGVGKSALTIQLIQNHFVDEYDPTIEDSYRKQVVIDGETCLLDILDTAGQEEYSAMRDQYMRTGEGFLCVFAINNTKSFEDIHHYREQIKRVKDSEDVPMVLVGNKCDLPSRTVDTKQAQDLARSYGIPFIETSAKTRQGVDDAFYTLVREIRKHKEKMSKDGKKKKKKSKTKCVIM
T5 sequence (P01116 1-188 isoform P01116-2 G12D): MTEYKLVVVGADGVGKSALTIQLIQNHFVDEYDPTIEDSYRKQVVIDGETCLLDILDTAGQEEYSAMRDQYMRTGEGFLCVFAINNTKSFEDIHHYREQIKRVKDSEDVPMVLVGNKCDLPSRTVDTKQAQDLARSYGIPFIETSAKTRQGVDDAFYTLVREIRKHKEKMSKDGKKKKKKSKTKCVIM
T2 sequence (P01116 1-188 isoform P01116-2 G12C): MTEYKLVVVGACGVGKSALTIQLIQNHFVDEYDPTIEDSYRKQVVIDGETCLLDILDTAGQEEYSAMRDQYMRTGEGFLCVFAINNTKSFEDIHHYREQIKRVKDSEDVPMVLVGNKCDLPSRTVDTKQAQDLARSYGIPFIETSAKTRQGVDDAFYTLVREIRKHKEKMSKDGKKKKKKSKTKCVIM
T4 sequence (P01116 1-188 isoform P01116-2): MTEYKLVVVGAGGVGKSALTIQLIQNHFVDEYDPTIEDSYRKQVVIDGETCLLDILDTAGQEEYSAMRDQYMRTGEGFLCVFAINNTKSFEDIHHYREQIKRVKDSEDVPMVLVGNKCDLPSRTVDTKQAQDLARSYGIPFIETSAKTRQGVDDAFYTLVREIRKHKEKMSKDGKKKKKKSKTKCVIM
T1 sequence (P01116 1-188 isoform P01116-2 G13D): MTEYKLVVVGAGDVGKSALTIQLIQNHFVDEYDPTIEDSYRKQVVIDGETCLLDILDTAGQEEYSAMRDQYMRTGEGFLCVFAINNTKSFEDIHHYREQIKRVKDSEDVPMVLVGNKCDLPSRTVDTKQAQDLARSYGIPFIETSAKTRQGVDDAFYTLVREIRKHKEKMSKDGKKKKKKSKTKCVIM

C#Cc1c(F)ccc2cc(O)cc(-c3ncc4c(N5CCC[C@@](C)(O)C5)nc(OC[C@H](C)CN5CCN(CC6CCC7(CC6)CCN(C(=O)c6ccc(OC)c(N8CCC(=O)NC8=O)c6)CC7)CC5)nc4c3F)c12 [Example 46, 1-(5-(9-((4-((R)-3-((7-(8-ethynyl-7-fluoro-3-hydroxynaphthalen-1-yl)-8-fluoro-4-((R)-3-hydroxy-3-methylpiperidin-1-yl)pyrido[4,3-d]pyrimidin-2-yl)oxy)-2-methylpropyl)piperazin-1-yl)methyl)-3-azaspiro[5.5]undecane-3-carbonyl)-2-methoxyphenyl)dihydropyrimidine-2,4(1H,3H)-dione]
IC50 [1]: 2.81 nM
IC50 [2]: 2.01 nM
IC50 [3]: 18.2 nM
DC50 [4]: 2.36 nM
Dmax [4]: 100%
DC50 [5]: 3.14 nM
Dmax [5]: 86.7%
DC50 [6]: 0.87 nM
Dmax [6]: 100%
IC50 [7]: 9.03 nM
DC50 [8]: 1.26 nM
Dmax [8]: 100%
IC50 [9]: 5.49 nM

C#Cc1c(F)ccc2cc(O)cc(-c3ncc4c(N5CCC[C@@](C)(O)C5)nc(OC[C@H](C)CN5CCN(CC6CCC7(CC6)CCN(C(=O)c6ccc(Cl)c(N8CCC(=O)NC8=O)c6)CC7)CC5)nc4c3F)c12 [Example 48, 1-(2-chloro-5-(9-((4-((R)-3-((7-(8-ethynyl-7-fluoro-3-hydroxynaphthalen-1-yl)-8-fluoro-4-((R)-3-hydroxy-3-methylpiperidin-1-yl)pyrido[4,3-d]pyrimidin-2-yl)oxy)-2-methylpropyl)piperazin-1-yl)methyl)-3-azaspiro[5.5]undecane-3-carbonyl)phenyl)dihydropyrimidine-2,4(1H,3H)-dione]
IC50 [1]: 5.17 nM
IC50 [2]: 21.2 nM
IC50 [3]: 85.5 nM
DC50 [4]: 1.34 nM
Dmax [4]: 100%
DC50 [5]: 17.2 nM
Dmax [5]: 100%
DC50 [6]: 1.02 nM
Dmax [6]: 100%
IC50 [7]: 23.2 nM
DC50 [8]: 2.33 nM
Dmax [8]: 100%
IC50 [9]: 2.61 nM

C#Cc1c(F)ccc2cc(O)cc(-c3ncc4c(N(C)[C@H]5C[C@@H]5F)nc(OC[C@H](C)CN5CCN(CC6CCC7(CC6)CCN(C(=O)c6ccc(OC)c(N8CCC(=O)NC8=O)c6)CC7)CC5)nc4c3F)c12 [Example 50, 1-(5-(9-((4-((R)-3-((7-(8-ethynyl-7-fluoro-3-hydroxynaphthalen-1-yl)-8-fluoro-4-(((1S,2S)-2-fluorocyclopropyl)(methyl)amino)pyrido[4,3-d]pyrimidin-2-yl)oxy)-2-methylpropyl)piperazin-1-yl)methyl)-3-azaspiro[5.5]undecane-3-carbonyl)-2-methoxyphenyl)dihydropyrimidine-2,4(1H,3H)-dione]
IC50 [1]: 3.73 nM
IC50 [2]: 23.7 nM
DC50 [10]: 167 nM
Dmax [10]: 77.1%
IC50 [3]: 46.7 nM
DC50 [4]: 3.98 nM
Dmax [4]: 98%
DC50 [5]: 21.6 nM
Dmax [5]: 96.3%
DC50 [6]: 3.22 nM
Dmax [6]: 99.4%
IC50 [7]: 157 nM
IC50 [9]: 90.9 nM

C#Cc1c(F)ccc2cc(O)cc(-c3ncc4c(N5CCC[C@@](C)(O)C5)nc(OCC5(CN6CCN(CC7CCC8(CC7)CCN(C(=O)c7ccc(CC)c(N9CCC(=O)NC9=O)c7)CC8)CC6)CC5)nc4c3F)c12 [Example 92, (R)-1-(2-ethyl-5-(9-((4-((1-(((7-(8-ethynyl-7-fluoro-3-hydroxynaphthalen-1-yl)-8-fluoro-4-(3-hydroxy-3-methylpiperidin-1-yl)pyrido[4,3-d]pyrimidin-2-yl)oxy)methyl)cyclopropyl)methyl)piperazin-1-yl)methyl)-3-azaspiro[5.5]undecane-3-carbonyl)phenyl)dihydropyrimidine-2,4(1H,3H)-dione]
IC50 [1]: 1.31 nM
IC50 [2]: 447 nM
IC50 [3]: 19.3 nM
DC50 [6]: 1.34 nM
Dmax [6]: 100%
IC50 [7]: 6.75 nM
DC50 [8]: 0.42 nM
Dmax [8]: 99%
IC50 [9]: 2.26 nM

[2H]C([2H])([2H])c1ccc(C(=O)N2CCC3(CCC(CN4CCN(CC5(COc6nc(N7CCC[C@@](C)(O)C7)c7cnc(-c8cc(O)cc9ccc(F)c(C#C)c89)c(F)c7n6)CC5)CC4)CC3)CC2)cc1N1CCC(=O)NC1=O [Example 111, (R)-1-(5-(9-((4-((1-(((7-(8-ethynyl-7-fluoro-3-hydroxynaphthalen-1-yl)-8-fluoro-4-(3-hydroxy-3-methylpiperidin-1-yl)pyrido[4,3-d]pyrimidin-2-yl)oxy)methyl)cyclopropyl)methyl)piperazin-1-yl)methyl)-3-azaspiro[5.5]undecane-3-carbonyl)-2-(methyl-d3)phenyl)dihydropyrimidine-2,4(1H,3H)-dione]
IC50 [1]: 1.12 nM
IC50 [2]: 2.15 nM
IC50 [3]: 2.5 nM
DC50 [4]: 6.78 nM
Dmax [4]: 99.3%
DC50 [6]: 1.65 nM
Dmax [6]: 100%
IC50 [7]: 4.68 nM
DC50 [8]: 0.69 nM
Dmax [8]: 99.9%
IC50 [9]: 5.88 nM

[2H]C([2H])([2H])c1ccc(C(=O)N2CCC3(CCC(CN4CCN(C[C@@H](C)COc5nc(N6CCC[C@@](C)(O)C6)c6cnc(-c7cc(O)cc8ccc(F)c(C#C)c78)c(F)c6n5)CC4)CC3)CC2)cc1N1CCC(=O)NC1=O [Example 132, 1-(5-(9-((4-((R)-3-((7-(8-ethynyl-7-fluoro-3-hydroxynaphthalen-1-yl)-8-fluoro-4-((R)-3-hydroxy-3-methylpiperidin-1-yl)pyrido[4,3-d]pyrimidin-2-yl)oxy)-2-methylpropyl)piperazin-1-yl)methyl)-3-azaspiro[5.5]undecane-3-carbonyl)-2-(methyl-d3)phenyl)dihydropyrimidine-2,4(1H,3H)-dione]
IC50 [1]: 0.43 nM
IC50 [2]: 4.31 nM
DC50 [10]: 25.2 nM
Dmax [10]: 95.3%
IC50 [3]: 6.2 nM
DC50 [4]: 5.6 nM
Dmax [4]: 100%
DC50 [5]: 1.37 nM
Dmax [5]: 100%
DC50 [6]: 2.42 nM
Dmax [6]: 100%
IC50 [7]: 9.75 nM
IC50 [9]: 7.7 nM
